Experimental data published in the supplement of paper PMC10307832.

Tests used:
Assay in all cases: relative viability (nuclei count vs DMSO), 5 days (fraction); higher = more cells survive
[1] = compound: C(C(=O)C(=O)O)Br [Bromopyruvate] + COc1cc2c(Oc3ccc(NC(=O)C4(C(=O)Nc5ccc(F)cc5)CC4)cc3F)ccnc2cc1OCCCN1CCOCC1 [Foretinib] (partner 0.25 µM)
Procedure, shortened: (§1)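 Lung cancer cell lines, seeded in 1536-well plates, were treated the following day by pin tool with a single drug or with five library-drug doses (not always all listed) in √10 steps on top of a fixed anchor-drug dose. Cells were fixed and nuclei stained in one step after 5 days, and nuclei were counted. Relative viability is the nuclei count for treated wells divided by that for vehicle wells, reported as medians of duplicate plates.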

[2] = compound: CC(O)(CS(=O)(=O)c1ccc(F)cc1)C(=O)Nc1ccc(C#N)c(C(F)(F)F)c1 [Bicalutamide] + CS(=O)(=O)N1CCN(Cc2cc3nc(-c4cccc5[nH]ncc45)nc(N4CCOCC4)c3s2)CC1 [Pictilisib] (partner 1 µM)
Procedure, shortened: as §1

[3] = compound: C(C(=O)C(=O)O)Br [Bromopyruvate] + C[C@@H](Oc1cc(-c2cnn(C3CCNCC3)c2)cnc1N)c1c(Cl)ccc(F)c1Cl [Crizotinib] (partner 1 µM)
Procedure, shortened: as §1

[4] = compound: C(C(=O)C(=O)O)Br [Bromopyruvate] + C[C@]1(O)C[C@@H](c2nc(-c3ccc4ccc(-c5ccccc5)nc4c3)c3c(N)nccn32)C1 [Linsitinib] (partner 1 µM)
Procedure, shortened: as §1

LOU-NH91
relative viability ([1]; first compound 1 µM): 0.945 | relative viability ([1]; first compound 3.162 µM): 0.903 | relative viability ([1]; first compound 10 µM): 0.999 | relative viability ([1]; first compound 31.62 µM): 0.92 | relative viability ([1]; first compound 100 µM): 0.984 | relative viability ([2]; first compound 0.08 µM): 0.537 | relative viability ([2]; first compound 0.253 µM): 0.471 | relative viability ([2]; first compound 0.8 µM): 0.549 | relative viability ([2]; first compound 2.53 µM): 0.491 | relative viability ([3]; first compound 1 µM): 0.769 | relative viability ([3]; first compound 3.162 µM): 0.708 | relative viability ([3]; first compound 10 µM): 0.712 | relative viability ([3]; first compound 31.62 µM): 0.76 | relative viability ([3]; first compound 100 µM): 0.724 | relative viability ([4]; first compound 1 µM): 0.89 | relative viability ([4]; first compound 3.162 µM): 0.964 | relative viability ([4]; first compound 10 µM): 0.944 | relative viability ([4]; first compound 31.62 µM): 1.04 | relative viability ([4]; first compound 100 µM): 1.1

IA-LM
relative viability ([1]; first compound 1 µM): 1.12 | relative viability ([1]; first compound 3.162 µM): 1.19 | relative viability ([1]; first compound 10 µM): 1.07 | relative viability ([1]; first compound 31.62 µM): 1.17 | relative viability ([1]; first compound 100 µM): 0.914 | relative viability ([2]; first compound 0.08 µM): 0.368 | relative viability ([2]; first compound 0.253 µM): 0.389 | relative viability ([2]; first compound 0.8 µM): 0.422 | relative viability ([2]; first compound 2.53 µM): 0.507 | relative viability ([3]; first compound 1 µM): 0.642 | relative viability ([3]; first compound 3.162 µM): 0.796 | relative viability ([3]; first compound 10 µM): 0.634 | relative viability ([3]; first compound 31.62 µM): 0.789 | relative viability ([3]; first compound 100 µM): 0.522 | relative viability ([4]; first compound 1 µM): 0.534 | relative viability ([4]; first compound 3.162 µM): 0.576 | relative viability ([4]; first compound 10 µM): 0.675 | relative viability ([4]; first compound 31.62 µM): 0.674 | relative viability ([4]; first compound 100 µM): 0.674

NCI-H322M
relative viability ([1]; first compound 1 µM): 0.978 | relative viability ([1]; first compound 3.162 µM): 0.964 | relative viability ([1]; first compound 10 µM): 1.02 | relative viability ([1]; first compound 31.62 µM): 0.99 | relative viability ([1]; first compound 100 µM): 1.05 | relative viability ([2]; first compound 0.08 µM): 0.469 | relative viability ([2]; first compound 0.253 µM): 0.53 | relative viability ([2]; first compound 0.8 µM): 0.573 | relative viability ([2]; first compound 2.53 µM): 0.55 | relative viability ([3]; first compound 1 µM): 0.958 | relative viability ([3]; first compound 3.162 µM): 0.804 | relative viability ([3]; first compound 10 µM): 0.948 | relative viability ([3]; first compound 31.62 µM): 0.806 | relative viability ([3]; first compound 100 µM): 0.943 | relative viability ([4]; first compound 1 µM): 0.869 | relative viability ([4]; first compound 3.162 µM): 0.913 | relative viability ([4]; first compound 10 µM): 0.981 | relative viability ([4]; first compound 31.62 µM): 0.908 | relative viability ([4]; first compound 100 µM): 0.891

HCC-827
relative viability ([1]; first compound 1 µM): 1.05 | relative viability ([1]; first compound 3.162 µM): 1.02 | relative viability ([1]; first compound 10 µM): 1.02 | relative viability ([1]; first compound 31.62 µM): 1.08 | relative viability ([1]; first compound 100 µM): 1.08 | relative viability ([2]; first compound 0.08 µM): 1.01 | relative viability ([2]; first compound 0.253 µM): 0.85 | relative viability ([2]; first compound 0.8 µM): 1.1 | relative viability ([2]; first compound 2.53 µM): 1.04 | relative viability ([3]; first compound 1 µM): 0.939 | relative viability ([3]; first compound 3.162 µM): 0.919 | relative viability ([3]; first compound 10 µM): 0.931 | relative viability ([3]; first compound 31.62 µM): 0.999 | relative viability ([3]; first compound 100 µM): 0.964 | relative viability ([4]; first compound 1 µM): 1.01 | relative viability ([4]; first compound 3.162 µM): 0.932 | relative viability ([4]; first compound 10 µM): 0.926 | relative viability ([4]; first compound 31.62 µM): 0.962 | relative viability ([4]; first compound 100 µM): 0.981

SW 1573
relative viability ([1]; first compound 1 µM): 0.741 | relative viability ([1]; first compound 3.162 µM): 0.845 | relative viability ([1]; first compound 10 µM): 0.982 | relative viability ([1]; first compound 31.62 µM): 0.996 | relative viability ([1]; first compound 100 µM): 0.868 | relative viability ([2]; first compound 0.08 µM): 0.564 | relative viability ([2]; first compound 0.253 µM): 0.475 | relative viability ([2]; first compound 0.8 µM): 0.461 | relative viability ([2]; first compound 2.53 µM): 0.535 | relative viability ([3]; first compound 1 µM): 1.02 | relative viability ([3]; first compound 3.162 µM): 0.815 | relative viability ([3]; first compound 10 µM): 0.76 | relative viability ([3]; first compound 31.62 µM): 0.803 | relative viability ([3]; first compound 100 µM): 0.57 | relative viability ([4]; first compound 1 µM): 0.839 | relative viability ([4]; first compound 3.162 µM): 0.842 | relative viability ([4]; first compound 10 µM): 0.794 | relative viability ([4]; first compound 31.62 µM): 0.776 | relative viability ([4]; first compound 100 µM): 0.651

NCI-H1975
relative viability ([1]; first compound 1 µM): 0.988 | relative viability ([1]; first compound 3.162 µM): 1.1 | relative viability ([1]; first compound 10 µM): 1.03 | relative viability ([1]; first compound 31.62 µM): 0.972 | relative viability ([1]; first compound 100 µM): 0.927 | relative viability ([2]; first compound 0.08 µM): 0.291 | relative viability ([2]; first compound 0.253 µM): 0.331 | relative viability ([2]; first compound 0.8 µM): 0.329 | relative viability ([2]; first compound 2.53 µM): 0.233 | relative viability ([3]; first compound 1 µM): 0.95 | relative viability ([3]; first compound 3.162 µM): 0.955 | relative viability ([3]; first compound 10 µM): 1 | relative viability ([3]; first compound 31.62 µM): 0.981 | relative viability ([3]; first compound 100 µM): 0.955 | relative viability ([4]; first compound 1 µM): 0.877 | relative viability ([4]; first compound 3.162 µM): 1.12 | relative viability ([4]; first compound 10 µM): 1.16 | relative viability ([4]; first compound 31.62 µM): 0.999 | relative viability ([4]; first compound 100 µM): 0.853

NCI-H1703
relative viability ([1]; first compound 1 µM): 0.327 | relative viability ([1]; first compound 3.162 µM): 0.397 | relative viability ([1]; first compound 10 µM): 0.364 | relative viability ([1]; first compound 31.62 µM): 0.367 | relative viability ([1]; first compound 100 µM): 0.356 | relative viability ([2]; first compound 0.08 µM): 0.235 | relative viability ([2]; first compound 0.253 µM): 0.261 | relative viability ([2]; first compound 0.8 µM): 0.236 | relative viability ([2]; first compound 2.53 µM): 0.231 | relative viability ([3]; first compound 1 µM): 0.736 | relative viability ([3]; first compound 3.162 µM): 0.946 | relative viability ([3]; first compound 10 µM): 0.589 | relative viability ([3]; first compound 31.62 µM): 0.862 | relative viability ([3]; first compound 100 µM): 0.75 | relative viability ([4]; first compound 1 µM): 0.602 | relative viability ([4]; first compound 3.162 µM): 1.08 | relative viability ([4]; first compound 10 µM): 0.709 | relative viability ([4]; first compound 31.62 µM): 0.678 | relative viability ([4]; first compound 100 µM): 0.655

NCI-H1651
relative viability ([1]; first compound 1 µM): 0.728 | relative viability ([1]; first compound 3.162 µM): 0.902 | relative viability ([1]; first compound 10 µM): 0.904 | relative viability ([1]; first compound 31.62 µM): 0.849 | relative viability ([1]; first compound 100 µM): 0.91 | relative viability ([2]; first compound 0.08 µM): 0.618 | relative viability ([2]; first compound 0.253 µM): 0.429 | relative viability ([2]; first compound 0.8 µM): 0.686 | relative viability ([2]; first compound 2.53 µM): 0.471 | relative viability ([3]; first compound 1 µM): 0.876 | relative viability ([3]; first compound 3.162 µM): 0.83 | relative viability ([3]; first compound 10 µM): 0.919 | relative viability ([3]; first compound 31.62 µM): 0.847 | relative viability ([3]; first compound 100 µM): 0.796 | relative viability ([4]; first compound 1 µM): 0.876 | relative viability ([4]; first compound 3.162 µM): 0.98 | relative viability ([4]; first compound 10 µM): 0.902 | relative viability ([4]; first compound 31.62 µM): 0.885 | relative viability ([4]; first compound 100 µM): 1.07

NCI-H460
relative viability ([1]; first compound 1 µM): 0.928 | relative viability ([1]; first compound 3.162 µM): 1.01 | relative viability ([1]; first compound 10 µM): 1.15 | relative viability ([1]; first compound 31.62 µM): 1.02 | relative viability ([1]; first compound 100 µM): 1 | relative viability ([2]; first compound 0.08 µM): 0.343 | relative viability ([2]; first compound 0.253 µM): 0.335 | relative viability ([2]; first compound 0.8 µM): 0.478 | relative viability ([2]; first compound 2.53 µM): 0.356 | relative viability ([3]; first compound 1 µM): 0.771 | relative viability ([3]; first compound 3.162 µM): 0.921 | relative viability ([3]; first compound 10 µM): 1.09 | relative viability ([3]; first compound 31.62 µM): 0.919 | relative viability ([3]; first compound 100 µM): 0.714 | relative viability ([4]; first compound 1 µM): 0.801 | relative viability ([4]; first compound 3.162 µM): 0.832 | relative viability ([4]; first compound 10 µM): 1.09 | relative viability ([4]; first compound 31.62 µM): 0.717 | relative viability ([4]; first compound 100 µM): 0.744
